Results taken from ChEMBL document CHEMBL3425460, “Stereoselective synthesis of 11-phenylundeca-5Z,9Z-dienoic acid and investigation of its human topoisomerase I and IIα inhibitory activity” (Bioorg Med Chem Lett, 2015).
Active and inactive are the calls of the source. The rule behind the calls is not given here.

Tests used:
DNA topoisomerase 1 = biological target: T1, DNA topoisomerase 1 (Homo sapiens, UniProt P11387); experiment: Inhibition of human topoisomerase 1-mediated DNA cleavage assessed as accumulation of nicked DNA by ethidium bromide staining based electrophoregram
T1 sequence (P11387 whole entry): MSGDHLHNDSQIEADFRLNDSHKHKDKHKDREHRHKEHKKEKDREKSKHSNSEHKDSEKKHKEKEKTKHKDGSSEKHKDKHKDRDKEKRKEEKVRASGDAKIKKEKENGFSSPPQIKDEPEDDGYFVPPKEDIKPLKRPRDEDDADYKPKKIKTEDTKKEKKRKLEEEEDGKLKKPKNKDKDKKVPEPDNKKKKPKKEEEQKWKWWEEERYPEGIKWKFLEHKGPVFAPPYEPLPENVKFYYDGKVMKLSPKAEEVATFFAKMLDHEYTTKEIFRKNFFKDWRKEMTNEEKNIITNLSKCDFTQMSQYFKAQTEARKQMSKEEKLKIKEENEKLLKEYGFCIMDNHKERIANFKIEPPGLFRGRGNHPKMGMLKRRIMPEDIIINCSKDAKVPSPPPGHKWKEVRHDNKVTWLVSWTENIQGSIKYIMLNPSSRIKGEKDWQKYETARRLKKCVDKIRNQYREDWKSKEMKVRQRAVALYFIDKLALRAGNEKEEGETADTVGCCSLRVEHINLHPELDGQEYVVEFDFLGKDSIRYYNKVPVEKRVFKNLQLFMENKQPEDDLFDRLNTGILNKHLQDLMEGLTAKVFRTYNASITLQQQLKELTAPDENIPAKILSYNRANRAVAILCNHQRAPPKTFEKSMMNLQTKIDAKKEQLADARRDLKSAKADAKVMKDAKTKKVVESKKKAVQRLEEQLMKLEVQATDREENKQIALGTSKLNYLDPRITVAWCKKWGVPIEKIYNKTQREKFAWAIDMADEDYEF

[1] = biological target: T2, DNA topoisomerase 1 (Homo sapiens) (UniProt P11387); details: 0.06 to 10 uM
T2 sequence (whole entry): T1 sequence (P11387 whole entry)
Description: Inhibition of human topoisomerase 1-mediated DNA cleavage assessed as accumulation of nicked DNA at 0.06 to 10 uM by ethidium bromide staining based electrophoregram

[2] = biological target: DNA topoisomerase 2-alpha (Homo sapiens) (UniProt P11388); experiment: Inhibition of human topoisomerase 2 alpha-mediated DNA cleavage assessed as linear form of plasmid by electrophoregram
[3] = Induction of pHOT1 DNA (unknown origin) cleavage assessed as conversion of supercoiled DNA to linear and nicked form of DNA at 5 to 500 uM after 30 mins by gel electrophoretic mobility assay
[4] = biological target: DNA topoisomerase 2-alpha (Homo sapiens) (UniProt P11388); experiment: Inhibition of human topoisomerase 2 alpha-mediated DNA cleavage assessed as accumulation of nicked DNA at 0.06 to 10 uM by electrophoregram
[5] = biological target: DNA topoisomerase 2-alpha (Homo sapiens) (UniProt P11388); experiment: Inhibition of human topoisomerase 2 alpha-mediated DNA cleavage assessed as accumulation of nicked DNA at 0.06 to 10 uM by ethidium bromide staining based electrophoregram

Sequence of DNA topoisomerase 2-alpha (Homo sapiens) (P11388 whole entry): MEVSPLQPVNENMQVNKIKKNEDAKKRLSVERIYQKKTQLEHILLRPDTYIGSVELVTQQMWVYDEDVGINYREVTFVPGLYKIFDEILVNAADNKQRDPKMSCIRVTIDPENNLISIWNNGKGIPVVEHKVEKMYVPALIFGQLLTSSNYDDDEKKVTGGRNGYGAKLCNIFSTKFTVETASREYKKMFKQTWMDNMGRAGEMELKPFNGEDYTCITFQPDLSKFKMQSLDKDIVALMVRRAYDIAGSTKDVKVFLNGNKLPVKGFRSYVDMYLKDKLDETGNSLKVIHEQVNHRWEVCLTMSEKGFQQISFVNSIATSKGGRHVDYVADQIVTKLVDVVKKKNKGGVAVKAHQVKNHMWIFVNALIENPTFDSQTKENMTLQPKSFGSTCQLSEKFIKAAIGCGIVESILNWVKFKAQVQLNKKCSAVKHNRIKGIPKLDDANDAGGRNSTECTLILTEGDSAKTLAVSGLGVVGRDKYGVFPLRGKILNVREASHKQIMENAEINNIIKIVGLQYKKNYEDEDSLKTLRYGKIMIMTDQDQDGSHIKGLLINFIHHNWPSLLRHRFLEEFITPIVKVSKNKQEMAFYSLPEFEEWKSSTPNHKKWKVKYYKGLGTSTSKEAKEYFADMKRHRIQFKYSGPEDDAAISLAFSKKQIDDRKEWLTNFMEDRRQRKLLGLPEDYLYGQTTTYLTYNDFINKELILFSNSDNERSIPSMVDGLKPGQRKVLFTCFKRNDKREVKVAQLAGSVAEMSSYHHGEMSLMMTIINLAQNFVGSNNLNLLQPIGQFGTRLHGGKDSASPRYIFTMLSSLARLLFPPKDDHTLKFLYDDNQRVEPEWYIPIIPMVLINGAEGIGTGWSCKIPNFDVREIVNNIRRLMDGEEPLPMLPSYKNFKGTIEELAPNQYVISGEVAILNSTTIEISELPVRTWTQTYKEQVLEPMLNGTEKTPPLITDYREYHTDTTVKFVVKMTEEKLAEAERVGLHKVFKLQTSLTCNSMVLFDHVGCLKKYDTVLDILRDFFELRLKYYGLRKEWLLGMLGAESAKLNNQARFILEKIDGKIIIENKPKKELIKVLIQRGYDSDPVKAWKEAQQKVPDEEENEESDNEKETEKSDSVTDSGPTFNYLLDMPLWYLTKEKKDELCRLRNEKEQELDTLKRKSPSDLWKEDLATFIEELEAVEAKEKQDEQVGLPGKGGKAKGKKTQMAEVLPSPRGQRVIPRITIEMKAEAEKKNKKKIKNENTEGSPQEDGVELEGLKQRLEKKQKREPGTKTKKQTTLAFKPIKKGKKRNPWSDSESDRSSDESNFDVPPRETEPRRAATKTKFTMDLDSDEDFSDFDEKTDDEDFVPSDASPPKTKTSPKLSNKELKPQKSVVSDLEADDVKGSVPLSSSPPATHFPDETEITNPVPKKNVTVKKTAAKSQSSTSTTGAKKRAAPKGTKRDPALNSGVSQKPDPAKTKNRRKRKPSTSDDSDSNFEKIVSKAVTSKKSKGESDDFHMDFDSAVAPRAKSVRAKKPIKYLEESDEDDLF

Row | IC50 (DNA topoisomerase 1) | inhibition [1] | inhibition [2] | Activity [3] | inhibition [4] | inhibition [5] | Structure (SMILES)
1 | 670 nM | Active | Dose-dependent effect | Active | Active | Active | O=C(O)CCC/C=C\CC/C=C\Cc1ccccc1
2 | 810 nM | – | – | – | – | – | CCCCCCCCCC/C=C\CC/C=C\CCCC(=O)O
